Test: xn = mol fraction of the nth substance listed
Conditions: 101.3 kPa, Liquid

OCCCCO [1,4-butanediol] + O
Conditions | mass density [kg/m3] | viscosity [mPa·s]
293.15 K, x1 = 0.0218 | 1001.44 | 1.792
293.15 K, x1 = 0.0478 | 1005.97 | 2.65
293.15 K, x1 = 0.0789 | 1010.98 | 3.889
293.15 K, x1 = 0.1175 | 1015.71 | 5.788
293.15 K, x1 = 0.1665 | 1019.86 | 8.755
293.15 K, x1 = 0.2305 | 1022.86 | 11.86
293.15 K, x1 = 0.3179 | 1024.32 | 19.07
293.15 K, x1 = 0.4441 | 1024.18 | 31.72
293.15 K, x1 = 0.6426 | 1021.57 | 56.69
293.15 K, x1 = 0.7917 | 1019.04 | 73.61
293.15 K, x1 = 0.8663 | 1017.74 | 80.53
293.15 K, x1 = 1 | 1015.76 | 90.33
303.15 K, x1 = 0.0218 | 998.53 | 1.418
303.15 K, x1 = 0.0478 | 1002.4 | 1.957
303.15 K, x1 = 0.0789 | 1006.62 | 2.756
303.15 K, x1 = 0.1175 | 1010.6 | 3.954
303.15 K, x1 = 0.1665 | 1014.11 | 5.775
303.15 K, x1 = 0.2305 | 1016.62 | 7.633
303.15 K, x1 = 0.3179 | 1017.88 | 12.09
303.15 K, x1 = 0.4441 | 1017.65 | 19.66
303.15 K, x1 = 0.6426 | 1015.15 | 34.96
303.15 K, x1 = 0.7917 | 1012.77 | 45.5
303.15 K, x1 = 0.8663 | 1011.48 | 49.82
303.15 K, x1 = 1 | 1009.54 | 55.98
313.15 K, x1 = 0.0218 | 994.86 | 1.176
313.15 K, x1 = 0.0478 | 998.21 | 1.522
313.15 K, x1 = 0.0789 | 1001.79 | 2.053
313.15 K, x1 = 0.1175 | 1005.16 | 2.835
313.15 K, x1 = 0.1665 | 1008.13 | 4.008
313.15 K, x1 = 0.2305 | 1010.28 | 5.198
313.15 K, x1 = 0.3179 | 1011.36 | 8.018
313.15 K, x1 = 0.4441 | 1011.09 | 12.78
313.15 K, x1 = 0.6426 | 1008.76 | 22.43
313.15 K, x1 = 0.7917 | 1006.4 | 29.65
313.15 K, x1 = 0.8663 | 1005.15 | 32.53
313.15 K, x1 = 1 | 1003.31 | 35.74
323.15 K, x1 = 0.0218 | 990.45 | 0.981
323.15 K, x1 = 0.0478 | 993.4 | 1.222
323.15 K, x1 = 0.0789 | 996.45 | 1.573
323.15 K, x1 = 0.1175 | 999.34 | 2.124
323.15 K, x1 = 0.1665 | 1001.87 | 2.909
323.15 K, x1 = 0.2305 | 1003.72 | 3.683
323.15 K, x1 = 0.3179 | 1004.68 | 5.573
323.15 K, x1 = 0.4441 | 1004.42 | 8.706
323.15 K, x1 = 0.6426 | 1002.32 | 14.6
323.15 K, x1 = 0.7917 | 1000 | 19.29
323.15 K, x1 = 0.8663 | 998.84 | 21.11
323.15 K, x1 = 1 | 997.14 | 23.63
333.15 K, x1 = 0.0218 | 985.4 | 0.871
333.15 K, x1 = 0.0478 | 987.96 | 1.042
333.15 K, x1 = 0.0789 | 990.59 | 1.281
333.15 K, x1 = 0.1175 | 993.09 | 1.652
333.15 K, x1 = 0.1665 | 995.27 | 2.191
333.15 K, x1 = 0.2305 | 996.89 | 2.705
333.15 K, x1 = 0.3179 | 997.78 | 4.017
333.15 K, x1 = 0.4441 | 997.58 | 6.143
333.15 K, x1 = 0.6426 | 995.75 | 10.12
333.15 K, x1 = 0.7917 | 993.6 | 13.04
333.15 K, x1 = 0.8663 | 992.48 | 14.29
333.15 K, x1 = 1 | 990.93 | 16.17
343.15 K, x1 = 0.0218 | 979.61 | 0.783
343.15 K, x1 = 0.0478 | 981.88 | 0.905
343.15 K, x1 = 0.0789 | 984.16 | 1.081
343.15 K, x1 = 0.1175 | 986.37 | 1.338
343.15 K, x1 = 0.1665 | 988.29 | 1.719
343.15 K, x1 = 0.2305 | 989.74 | 2.055
343.15 K, x1 = 0.3179 | 990.6 | 2.991
343.15 K, x1 = 0.4441 | 990.49 | 4.471
343.15 K, x1 = 0.6426 | 988.97 | 7.211
343.15 K, x1 = 0.7917 | 987.21 | 9.223
343.15 K, x1 = 0.8663 | 986.17 | 10.11
343.15 K, x1 = 1 | 984.81 | 11.45
353.15 K, x1 = 0.0218 | 973.52 | 0.723
353.15 K, x1 = 0.0478 | 975.53 | 0.809
353.15 K, x1 = 0.0789 | 977.47 | 0.94
353.15 K, x1 = 0.1175 | 979.3 | 1.108
353.15 K, x1 = 0.1665 | 981.05 | 1.381
353.15 K, x1 = 0.2305 | 982.41 | 1.804
353.15 K, x1 = 0.3179 | 983.3 | 2.283
353.15 K, x1 = 0.4441 | 983.33 | 3.358
353.15 K, x1 = 0.6426 | 982.14 | 5.276
353.15 K, x1 = 0.7917 | 980.68 | 6.743
353.15 K, x1 = 0.8663 | 979.77 | 7.321
353.15 K, x1 = 1 | 978.59 | 8.28

— the NIST ThermoML archive (doi:10.1021/je0341918)
